Results published in patent US8183388B2, “Androgen receptor modulator and uses thereof” (Eli Lilly and Company, priority 2009, dated 2012).

Key:
[1] = tested on: castrated (GDX) male Sprague Dawley rats; experiment: In vivo model of efficacy and selectivity (castrated rats, tissue wet weights); details: for mean normalized LA wet weight value / mean normalized bulbocavernous wet weight value / mean normalized prostate wet weight value: two week treatment, n=6, wet weight divided by body weight
Method: Eight week old male Sprague Dawley rats are castrated (gonadectomized or “GDX”) according to approved procedures and allowed to waste for eight weeks. Age-matched sham-operated […] are also prepared. Animals are housed in a temperature-controlled room (24° C.) with a reversed 12 hour light/dark cycle and water and food are available ad libitum.
Animals are randomized based on body weight prior to ascribing a test slot. Test compound in vehicle, or vehicle alone, is administered daily by subcutaneous injection to the castrated 16 week old rats (body weight about 380-400 g) using a conventional vehicle such as 5% DMSO/95% soybean oil. Sham operated rats treated with vehicle alone are used as a treatment positive controls, whereas the castrated rats treated only with vehicle are used as treatment negative control. A separate cohort of castrated animals are treated with testosterone as a comparator.
Test animals are dosed daily over a two or eight week timeframe with, for example, 0.1, 0.3, or 1.0 mg/kg per day of the compound of the present invention, or weekly with 10 mg/kg per week of testosterone (sesame oil vehicle) After the treatment period the animals are sacrificed and the wet weight of the levator ani (LA) muscle, the prostate and the bulbocavernous muscle from each animal is determined (after weighing, the bulbocavernous muscle may be flash frozen in liquid nitrogen for later use in measuring neuronal nitric oxide synthase mRNA, as described below). The wet weights are then normalized by dividing each individual wet weight by the body weight of the corresponding animal at the end of the study. The normalized values from the treatment animals are then compared to the normalized values from the castrated, vehicle-only control group or the sham group. As an indicator of tissue selective activity, the wet weight of the prostate from test animals may be similarly compared to the wet weight of the prostate from the control groups or the testosterone-treated comparator group.

[2] = target: T1, human PR (progesterone receptor) (Homo sapiens, UniProt P06401); experiment: Steroid hormone nuclear receptor binding assay, PR; details: HEK293 lysate overexpressing human PR, [3H]-methyltrienolone
T1 construct: expressed in transfected cells; host or cells: HEK293 (lysate, 293-PR)
T1 sequence (P06401 1-933): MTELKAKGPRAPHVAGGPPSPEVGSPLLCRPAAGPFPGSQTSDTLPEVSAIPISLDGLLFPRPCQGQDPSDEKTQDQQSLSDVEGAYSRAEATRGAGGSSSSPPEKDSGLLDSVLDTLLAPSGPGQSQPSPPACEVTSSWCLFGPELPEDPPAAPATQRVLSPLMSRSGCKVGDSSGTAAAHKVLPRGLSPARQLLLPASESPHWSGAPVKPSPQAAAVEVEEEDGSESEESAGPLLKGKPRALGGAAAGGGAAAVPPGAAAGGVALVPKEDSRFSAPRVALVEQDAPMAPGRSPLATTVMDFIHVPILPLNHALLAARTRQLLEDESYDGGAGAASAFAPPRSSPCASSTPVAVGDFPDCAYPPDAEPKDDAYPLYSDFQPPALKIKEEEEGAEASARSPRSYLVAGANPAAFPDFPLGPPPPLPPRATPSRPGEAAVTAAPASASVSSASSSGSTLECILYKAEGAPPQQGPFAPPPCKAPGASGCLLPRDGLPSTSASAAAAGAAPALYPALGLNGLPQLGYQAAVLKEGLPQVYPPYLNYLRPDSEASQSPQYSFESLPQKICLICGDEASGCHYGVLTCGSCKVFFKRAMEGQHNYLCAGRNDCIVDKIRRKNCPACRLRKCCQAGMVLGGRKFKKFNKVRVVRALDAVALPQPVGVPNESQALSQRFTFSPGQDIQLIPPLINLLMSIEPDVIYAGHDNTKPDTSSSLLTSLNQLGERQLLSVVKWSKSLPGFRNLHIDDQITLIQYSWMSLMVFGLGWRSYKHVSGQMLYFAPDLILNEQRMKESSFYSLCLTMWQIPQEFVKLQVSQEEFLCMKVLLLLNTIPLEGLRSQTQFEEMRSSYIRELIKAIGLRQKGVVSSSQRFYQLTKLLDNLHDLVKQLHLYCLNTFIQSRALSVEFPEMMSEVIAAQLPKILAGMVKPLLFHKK
Method: Cell lysates from human embryonic kidney HEK293 cells overexpressing human MR (mineralocorticoid receptor), GR (glucocorticoid receptor), AR (androgen receptor), or PR (progesterone receptor) are used for receptor-ligand competition binding assays to determine Ki values. Typical procedures are provided below
Briefly, steroid receptor competition binding assays are run in a buffer containing 20 mM HEPES buffer (pH=7.6), 0.2 mM EDTA, 75 mM NaCl, 1.5 mM MgCl2, 20% glycerol, 20 mM sodium molybdate, 0.2 mM DTT (dithiothreitol), 20 μg/mL aprotinin and 20 μg/mL leupeptin (assay buffer). Typically, steroid receptor binding assays include radio-labeled ligands, such as 0.25 nM [^3H]-aldosterone for MR binding, 0.3 nM [^3H]-dexamethasone for GR binding, 0.36 nM [^3H]-methyltrienolone for AR binding, and 0.29 nM [^3H]-methyltrienolone for PR binding, and either 20 μg 293-MR lysate, 20 μg 293-GR lysate, 22 μg 293-AR lysate, or 40 μg 293-PR lysate per well. Assays are typically run in 96-well format. Competing test compounds are added at various concentrations ranging from about 0.01 nM to 10 μM. Non-specific binding is determined in the presence of 500 nM aldosterone for MR binding, 500 nM dexamethasone for GR binding, or 500 nM methyltrienolone for AR and PR binding. […] After an incubation of 2 hours, plates are read in a Wallac Microbeta counter. […]

SMILES: CC(C)OC(=O)N[C@H]1Cc2c(n(C[C@H]3OCC[C@@H]3O)c3ccc(C#N)cc23)C1 [compound of Formula (I), [(S)-7-Cyano-4-((2R,3S)-3-hydroxytetrahydrofuran-2-ylmethyl)-1,2,3,4-tetrahydrocyclopenta[b]indol-2-yl]-carbamic acid isopropyl ester]
- mean normalized LA wet weight value ([1]; 0.1 mg/kg per day s.c.): about 0.44
- mean normalized bulbocavernous wet weight value ([1]; 0.1 mg/kg per day s.c.): about 0.77
- mean normalized prostate wet weight value ([1]; 0.1 mg/kg per day s.c.): about 0.04
- mean normalized LA wet weight value ([1]; 0.3 mg/kg per day s.c.): about 0.57
- mean normalized bulbocavernous wet weight value ([1]; 0.3 mg/kg per day s.c.): about 1.29
- mean normalized prostate wet weight value ([1]; 0.3 mg/kg per day s.c.): about 0.14
- mean normalized LA wet weight value ([1]; 1.0 mg/kg per day s.c.): about 0.68
- mean normalized bulbocavernous wet weight value ([1]; 1.0 mg/kg per day s.c.): about 1.41
- mean normalized prostate wet weight value ([1]; 1.0 mg/kg per day s.c.): about 0.52
- levator ani and bulbocavernous muscle weights in comparison to the castrated control group ([1]; 0.1-1.0 mg/kg per day s.c., two weeks): dose dependent increase
- effect on prostate weight when compared to Sham control and testosterone treated animals ([1]; two weeks, tissue selectivity): decreased effect
- Ki [2]: > 4 µM
